Holding throughout (assay): growth of human tumour cells (NCI), 48 h
Test [1] concerns PC-3.
For test [2], the system named is LOX IMVI.
Test [3] has as its system SF-295.
Test [4] has as its system SK-MEL-28.
For test [5], the system named is MOLT-4.
Test [6] deals with IGROV-1.
Test [7] concerns SF-268.
Test [8] relates to MDA-N.
The test system of test [9] is SK-MEL-5.
Test [10] has as its system NCI-H522.
The test system of test [11] is 786-0.
Test [12] relates to HT-29.
Test [13] deals with UO-31.
Test [14] deals with U-251.
For test [15], the system named is HCT-116.
Test [16] has as its system RPMI-8226.
For test [17], the system named is NCI-H226.
For test [18], the system named is EKVX.
The subject of test [19] is RXF 393.
The test system of test [20] is K562.

Here are results for eleven compounds from ChEMBL document CHEMBL1201862, “PubChem BioAssay data set” (2004).

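1) Cells in 96-well plates. 2) Compound, 48 h, 5 concentrations. 3) Linear interpolation between surrounding doses. 4) Unreached endpoint = highest concentration. GI50 = concentration required for 50% inhibition of growth.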 Activity calls are given as the source filed them. No stated cut-off is given here; in the data, active = GI50 up to about 1.1 µM and inactive = higher.

As to `Cc1ccc(SCC(OCn2cnc3c(Cl)nc(N)nc32)[C@H](C)F)cc1` (stereo not given in full), the GI50 is 60.5 µM (inactive) in test [1]; > 100 µM (inactive) in [2]; 53.7 µM (inactive) in test [3]; > 100 µM (inactive) in test [4]; 18.9 µM (inactive) in [5]; > 100 µM (inactive) in test [6]. The GI50 is > 100 µM (inactive) in test [7]; > 100 µM (inactive) in test [8]; 18.1 µM (inactive) in test [9]; 13.8 µM (inactive) in test [10]; 85.1 µM (inactive) in test [11]; 82.2 µM (inactive) in test [12]. Also, the GI50 in [13] was 59.3 µM (inactive); in [14], 98.4 µM (inactive); in test [15], 50.4 µM (inactive); in test [16], 36.9 µM (inactive); in test [17] it was > 100 µM (inactive).

In the case of `COc1ccc2[nH]c3c(C)c4cnccc4c(C)c3c2c1`, the GI50 is 2.99 µM (inactive) in [1]; 3.3 µM (inactive) in test [3]; 1.94 µM (inactive) in [4]; 0.571 µM (active) in [5]; 3.85 µM (inactive) in [6]; 2.75 µM (inactive) in [7]. In addition, the GI50 in test [8] is 1.85 µM (inactive); in test [18], 1.87 µM (inactive); in [9], > 10 µM (inactive); in test [10], 2.02 µM (inactive); in test [11], 0.424 µM (active); in test [19], 2.49 µM (inactive). Moreover, the GI50 in [12] was 1.11 µM (active); in test [14], 1.72 µM (inactive); in test [15], 1.25 µM (inactive); in test [16], 2.95 µM (inactive); in test [17] it was 1.4 µM (inactive); in test [20], 2.4 µM (inactive).

On to `c1cc(-c2ccc(-c3ccc(C4=NCCCN4)cc3)o2)ccc1C1=NCCCN1`, for which the GI50 in [1] is 79.1 µM (inactive); in [2], 37.4 µM (inactive); in [3], 24.2 µM (inactive); in [4] it was 25.1 µM (inactive); in test [5], > 100 µM (inactive); in [7], > 100 µM (inactive). For the same compound, the GI50 in test [8] is 32.6 µM (inactive); in test [18], 40.2 µM (inactive); in test [9], 22.8 µM (inactive); in test [10] it was 81.3 µM (inactive); in test [11], 61.5 µM (inactive); in test [19], > 100 µM (inactive). The GI50 in [12] is 76.4 µM (inactive); in test [13] it was > 100 µM (inactive); in test [14], 33.3 µM (inactive); in [15], 39.6 µM (inactive); in [17], 54 µM (inactive); in test [20] it was 40.6 µM (inactive).

As to `CCOC(=O)C(CS)NC(=O)CCCCCCCC(=O)O` (stereo not given), the GI50 in test [1], in test [2], in [3], in test [4], in [5] and in test [6] was > 100 µM (inactive) each time. The GI50 in test [8], in test [18], in [9], in test [10], in test [11] and in [12] was > 100 µM (inactive) each time. The GI50 in test [13], in test [14], in test [15], in test [16], in test [17] and in test [20] was > 100 µM (inactive) throughout.

As for `CC1(C(O)c2ccccc2)CN(C(C)(C)C)C(=O)/C1=C\Sc1ccccc1` (stereo not given), the GI50 in [1] is 17.3 µM (inactive); in test [2], 14.1 µM (inactive); in [3], 28.3 µM (inactive); in test [4] it was > 100 µM (inactive); in test [5] it was 19.2 µM (inactive); in test [6], 33.3 µM (inactive). The GI50 in [7] is 1.76 µM (inactive); in test [8], 39.1 µM (inactive); in test [18] it was 83 µM (inactive); in test [9], 43.7 µM (inactive); in [10], 2.48 µM (inactive); in [11] it was 46 µM (inactive). For the same compound, the GI50 in test [12] was 21.1 µM (inactive); in [13] it was 29.7 µM (inactive); in [14] it was 22.6 µM (inactive); in test [15], 25.4 µM (inactive); in test [16] it was 9.95 µM (inactive); in test [20] it was 42.1 µM (inactive).

As for `C=CCc1oc(C)nc1CCCC`, the GI50 in test [1], in test [2], in [3], in [4], in test [5] and in test [6] was > 100 µM (inactive) in each case. The GI50 in [7], in test [8], in test [18], in test [9], in [10] and in test [11] was > 100 µM (inactive) throughout. Besides, the GI50 in [19], in [12], in [13], in test [14], in [15] and in test [17] was > 100 µM (inactive) each time. Besides, in test [20], the GI50 was > 100 µM (inactive).

Turning to `Cc1c[nH]c(C(=O)O)c1-c1ccc2c(-c3ccccc3)nc3ccccc3n12`, the GI50 in test [1] was 27.4 µM (inactive); in test [2] it was 27.1 µM (inactive); in test [3], 22.7 µM (inactive); in [4] it was 31.4 µM (inactive); in test [5], 34.2 µM (inactive); in test [6], 22.9 µM (inactive). Further, the GI50 in [7] was 28.2 µM (inactive); in [8] it was 19 µM (inactive); in test [18], 20.5 µM (inactive); in test [9], 30.5 µM (inactive); in [10], 20.9 µM (inactive); in [11], 33.3 µM (inactive). For the same compound, the GI50 in [19] is 18.2 µM (inactive); in [12] it was 22.8 µM (inactive); in test [13], 34.4 µM (inactive); in test [14] it was 48.3 µM (inactive); in test [15] it was 34.8 µM (inactive); in test [17], 20.3 µM (inactive). In addition, the GI50 in test [20] is 41.5 µM (inactive).

As to `CN1CCCCCC(=N\O)/C(=N/O)CCCCC1`, the GI50 in test [1], in test [2], in test [3], in test [4], in test [5] and in test [6] was > 100 µM (inactive) in each case. The GI50 in test [7], in [8], in test [18], in test [9], in test [10] and in test [11] was > 100 µM (inactive) in each case. Besides, the GI50 in [19], in [12], in test [13], in test [14], in test [15] and in test [17] was > 100 µM (inactive) throughout. Besides, the GI50 in test [20] was > 100 µM (inactive).

For `COc1ccc(CC(O)CN2CCOCC2)cc1` (stereo not given), the GI50 in test [1], in [2], in [3], in test [4], in test [5] and in test [6] was > 100 µM (inactive) throughout. In addition, the GI50 in test [7], in test [8], in test [18], in test [9], in [10] and in test [11] was > 100 µM (inactive) throughout. The GI50 in test [19], in test [12], in test [13], in [14], in test [15] and in test [17] was > 100 µM (inactive) throughout. Besides, the GI50 in test [20] was > 100 µM (inactive).

Turning to `COc1cccc2c1C(=O)c1c(O)c3c(c(O)c1C2=O)CC(O)(C(O)CO)CC3OC1CC(N2CCOCC2)C(O)C(C)O1` (stereo not given), the GI50 in [1] was 0.0123 µM (active); in test [3], 0.00206 µM (active); in test [4], 0.00406 µM (active); in [6], 0.00279 µM (active); in [7], 0.00231 µM (active); in [8] it was 0.0143 µM (active). Moreover, the GI50 in test [18] was 0.00386 µM (active); in test [9], 0.00223 µM (active); in test [10], 0.00273 µM (active); in [11], 0.0277 µM (active); in test [19] it was 0.0155 µM (active); in test [12], 0.00308 µM (active). Further, the GI50 in [14] is 0.0047 µM (active); in [15], < 0.001 µM (active); in [16], 0.00378 µM (active); in [17], 0.0118 µM (active); in test [20], 0.00412 µM (active).

As for `O=c1c(C(c2ccc([N+](=O)[O-])cc2)c2c(O)oc3ccccc3c2=O)c(O)oc2ccccc12`, the GI50 in test [1], in test [2], in test [4], in test [5], in test [6] and in [7] was > 100 µM (inactive) in each case. In addition, the GI50 in test [8], in test [18], in test [9], in test [10], in test [11] and in test [12] was > 100 µM (inactive) in each case. Also, the GI50 is > 100 µM (inactive) in test [13]; > 100 µM (inactive) in test [14]; > 100 µM (inactive) in test [15]; 1 µM (active) in [16]; > 100 µM (inactive) in test [17]; 10 µM (inactive) in test [20].
